Data on 13 compounds can be found in US20090181986A1, “SUBSTITUTED HETEROCYCLIC COMPOUNDS” (priority 2007, published 2009).

For data set [1], the system named is L-type calcium channel. Description: L-type calcium channel activity well-plate assay (IMR-32 cells, Ca-4 dye, FlexStation). It is filed as cell-based, human. Here is the method:
Cell Culture: IMR-32 (human neuroblastoma) cells were obtained from The American Type Culture Collection. The cells were maintained in MEM supplemented with 10% fetal bovine serum, 2 mM of L-glutamine, 100 IU/ml of penicillin, 50 μg/ml of streptomycin, 1% of sodium pyruvate, 1% of sodium bicarbonate and 1% of non-essential amino acid. […] Culture medium was changed every two days and cells were recultivated when they reached 70-80% confluent.
Assay: IMR-32 cells were seeded on a Microtest 96-well Assay Plate (BD FALCON™) at a density of 200,000 cells/well in 200 μl culture medium for overnight. The culture medium was removed, and replaced by 120 μl Ca-4 dye (MDS Analytical Technologies, Sunnyvale, Calif.) in HBSS (1× Hank's Balanced Salt solution plus 20 mM HEPES, pH 7.4) containing 2 mM probenecid. Cells were then incubated for 1 hour at 37° in incubator. Testing compounds were diluted from 5 μM-50 μM in HBSS, and 40 μl were added in cells before assay. […] The inhibition of L-type calcium channel activity by compounds was then calculated.

Data set [2] deals with hERG potassium channel (Homo sapiens, UniProt Q12809). Description: hERG screening assay (PatchXpress patch clamp, CHO cells).
Chain of hERG potassium channel (Q12809 whole entry): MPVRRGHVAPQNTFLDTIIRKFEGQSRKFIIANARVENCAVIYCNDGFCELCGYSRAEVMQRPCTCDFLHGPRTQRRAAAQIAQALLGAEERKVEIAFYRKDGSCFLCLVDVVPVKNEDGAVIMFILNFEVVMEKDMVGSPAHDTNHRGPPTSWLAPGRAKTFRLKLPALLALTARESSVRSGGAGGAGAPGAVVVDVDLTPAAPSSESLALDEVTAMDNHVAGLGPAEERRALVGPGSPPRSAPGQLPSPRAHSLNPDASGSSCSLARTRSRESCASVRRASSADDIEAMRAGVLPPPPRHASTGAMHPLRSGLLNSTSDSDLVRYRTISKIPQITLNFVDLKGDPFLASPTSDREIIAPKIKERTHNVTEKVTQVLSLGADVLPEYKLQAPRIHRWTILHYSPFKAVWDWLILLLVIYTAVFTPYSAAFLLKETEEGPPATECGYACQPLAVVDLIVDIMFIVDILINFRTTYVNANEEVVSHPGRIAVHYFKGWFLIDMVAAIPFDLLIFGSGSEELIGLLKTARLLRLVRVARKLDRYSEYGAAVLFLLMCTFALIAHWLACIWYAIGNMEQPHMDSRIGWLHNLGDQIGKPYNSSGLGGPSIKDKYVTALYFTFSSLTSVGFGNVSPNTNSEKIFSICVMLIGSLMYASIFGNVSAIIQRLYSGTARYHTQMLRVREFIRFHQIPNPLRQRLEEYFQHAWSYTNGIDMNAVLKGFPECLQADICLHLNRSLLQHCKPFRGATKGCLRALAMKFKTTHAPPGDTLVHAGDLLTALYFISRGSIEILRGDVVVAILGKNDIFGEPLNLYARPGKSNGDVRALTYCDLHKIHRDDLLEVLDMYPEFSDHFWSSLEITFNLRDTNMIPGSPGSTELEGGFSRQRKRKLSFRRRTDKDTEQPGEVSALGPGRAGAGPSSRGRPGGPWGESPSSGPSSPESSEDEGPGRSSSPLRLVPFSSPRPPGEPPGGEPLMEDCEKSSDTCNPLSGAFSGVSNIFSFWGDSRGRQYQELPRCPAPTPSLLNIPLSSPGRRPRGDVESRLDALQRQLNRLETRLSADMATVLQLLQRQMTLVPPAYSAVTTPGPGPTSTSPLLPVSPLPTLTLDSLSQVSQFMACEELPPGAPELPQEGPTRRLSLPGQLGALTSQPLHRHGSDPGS

For `CCOC(=O)C1=C(C)Nc2nc(C#N)c(C#N)n2C1c1cccc2ccccc12` (stereo not shown) [PT-194, ethyl 2,3-dicyano-7-methyl-5-(naphthalen-1-yl)-5,8-dihydroimidazo[1,2-a]pyrimidine-6-carboxylate], in data set [1], the “CaL Plate Assay % blk (1 μM test cmpd)” value is given as 21% and the “CaL Plate Assay % blk (10 μM test cmpd)” value is listed as 61%. Besides, in data set [2], the “hERG Patch Clamp hERG % blk (1 μM test cmpd)” value was found to be 25% and the “hERG Patch Clamp hERG % blk (10 μM test cmpd)” value turned out to be 91%.
`CC1=C(C(=O)NCc2ccccc2)C(c2ccsc2)C2=C(CCCC2=O)N1` (stereo not shown) [PT-178, N-benzyl-2-methyl-5-oxo-4-(thiophen-3-yl)-1,4,5,6,7,8-hexahydroquinoline-3-carboxamide]: in data set [1], the “CaL Plate Assay % blk (1 μM test cmpd)” value was determined as 10% and the “CaL Plate Assay % blk (10 μM test cmpd)” value worked out at 2%. In data set [2], the “hERG Patch Clamp hERG % blk (1 μM test cmpd)” value is recorded as 11.5% and the “hERG Patch Clamp hERG % blk (10 μM test cmpd)” value is recorded as 30%.
On the same counts, the results for `CC1=C(C(=O)OCc2ccccc2)C(c2sc3ccccc3c2C)n2nnnc2N1` (stereo not shown) [PT-044, benzyl 5-methyl-7-(3-methylbenzo[b]thiophen-2-yl)-4,7-dihydrotetrazolo[1,5-a]pyrimidine-6-carboxylate] are 7%, 35%, 16.5% and 40%.
Regarding `CCOC(=O)C1=C(C)NC(C)=C(C(=O)OCC)C1c1ccc2ccccc2c1` [PT-107, diethyl 2,6-dimethyl-4-(naphthalen-2-yl)-1,4-dihydropyridine-3,5-dicarboxylate], in data set [1], the “CaL Plate Assay % blk (1 μM test cmpd)” value was found to be 10% and the “CaL Plate Assay % blk (10 μM test cmpd)” value is given as 44%. In addition, in data set [2], the “hERG Patch Clamp hERG % blk (1 μM test cmpd)” value worked out at 11.5% and the “hERG Patch Clamp hERG % blk (10 μM test cmpd)” value is given as 48%.
Take `CC1=C(C(=O)OCc2ccccc2)C(c2cccs2)n2nnnc2N1` (stereo not shown) [PT-040, benzyl 5-methyl-7-(thiophen-2-yl)-4,7-dihydrotetrazolo[1,5-a]pyrimidine-6-carboxylate]: in data set [1], the “CaL Plate Assay % blk (1 μM test cmpd)” value is 0% and the “CaL Plate Assay % blk (10 μM test cmpd)” value was 18%. In data set [2], the “hERG Patch Clamp hERG % blk (1 μM test cmpd)” value is 14.5% and the “hERG Patch Clamp hERG % blk (10 μM test cmpd)” value was determined as 24.5%.
For the compound `N#CC1=C(N)OC2=C(C(=O)CCC2)C1c1ccc(Br)cc1` (stereo not shown) [PT-096, 2-amino-4-(4-bromophenyl)-5-oxo-5,6,7,8-tetrahydro-4H-chromene-3-carbonitrile], in data set [1], the “CaL Plate Assay % blk (1 μM test cmpd)” value was determined as 8% and the “CaL Plate Assay % blk (10 μM test cmpd)” value amounted to 39%. Besides, in data set [2], the “hERG Patch Clamp hERG % blk (1 μM test cmpd)” value came to 15% and the “hERG Patch Clamp hERG % blk (10 μM test cmpd)” value is recorded as 48%.
In the case of `CCOC(=O)C1=C(C)Nc2nnnn2C1c1ccc2ccccc2c1` (stereo not shown) [PT-008, ethyl 5-methyl-7-(naphthalen-2-yl)-4,7-dihydrotetrazolo[1,5-a]pyrimidine-6-carboxylate], in data set [1], the “CaL Plate Assay % blk (1 μM test cmpd)” value is recorded as 0% and the “CaL Plate Assay % blk (10 μM test cmpd)” value was found to be 9%. Also, in data set [2], the “hERG Patch Clamp hERG % blk (1 μM test cmpd)” value turned out to be 10% and the “hERG Patch Clamp hERG % blk (10 μM test cmpd)” value is given as 33.5%.
For the compound `CC1=C(C(=O)OCc2ccccc2)C(c2cccc3ccccc23)n2nnnc2N1` (stereo not shown) [PT-027, benzyl 5-methyl-7-(naphthalen-1-yl)-4,7-dihydrotetrazolo[1,5-a]pyrimidine-6-carboxylate], in data set [1], the “CaL Plate Assay % blk (1 μM test cmpd)” value amounted to 0% and the “CaL Plate Assay % blk (10 μM test cmpd)” value worked out at 0%. In data set [2], the “hERG Patch Clamp hERG % blk (1 μM test cmpd)” value amounted to 14% and the “hERG Patch Clamp hERG % blk (10 μM test cmpd)” value was 64.5%.
`CCOC(=O)C1=C(C)N(C)C(C)=C(C(=O)OCC)C1c1cccc2ccccc12` [PT-191, diethyl 1,2,6-trimethyl-4-(naphthalen-1-yl)-1,4-dihydropyridine-3,5-dicarboxylate]: in data set [1], the “CaL Plate Assay % blk (1 μM test cmpd)” value came to 12% and the “CaL Plate Assay % blk (10 μM test cmpd)” value was determined as 37%. Moreover, in data set [2], the “hERG Patch Clamp hERG % blk (1 μM test cmpd)” value amounted to 26.5% and the “hERG Patch Clamp hERG % blk (10 μM test cmpd)” value is 68%.
Take `CC1=C(C(=O)OCc2ccccc2)C(c2csc3ccccc23)n2nnnc2N1` (stereo not shown) [PT-042, benzyl 7-(benzo[b]thiophen-3-yl)-5-methyl-4,7-dihydrotetrazolo[1,5-a]pyrimidine-6-carboxylate]: in data set [1], the “CaL Plate Assay % blk (1 μM test cmpd)” value was found to be 0% and the “CaL Plate Assay % blk (10 μM test cmpd)” value came to 16%. In data set [2], the “hERG Patch Clamp hERG % blk (1 μM test cmpd)” value came to 11% and the “hERG Patch Clamp hERG % blk (10 μM test cmpd)” value is listed as 52.5%.
Regarding `CCOC(=O)C1=C(C)Nc2nnnn2C1c1cccc2ccccc12` (stereo not shown) [PT-192, ethyl 5-methyl-7-(naphthalen-1-yl)-4,7-dihydrotetrazolo[1,5-a]pyrimidine-6-carboxylate], in data set [1], the “CaL Plate Assay % blk (1 μM test cmpd)” value is given as 9% and the “CaL Plate Assay % blk (10 μM test cmpd)” value is recorded as 12%. In data set [2], the “hERG Patch Clamp hERG % blk (1 μM test cmpd)” value was 23% and the “hERG Patch Clamp hERG % blk (10 μM test cmpd)” value came out at 29%.
Regarding `CCOC(=O)C1=C(CC)NC(CC)=C(C(=O)OCC)C1c1ccc(Br)s1` [PT-181, diethyl 4-(5-bromothiophen-2-yl)-2,6-diethyl-1,4-dihydropyridine-3,5-dicarboxylate], in data set [1], the “CaL Plate Assay % blk (1 μM test cmpd)” value is reported as 8% and the “CaL Plate Assay % blk (10 μM test cmpd)” value was found to be 61%. Further, in data set [2], the “hERG Patch Clamp hERG % blk (1 μM test cmpd)” value worked out at 10.5% and the “hERG Patch Clamp hERG % blk (10 μM test cmpd)” value came to 73%.
Consider `CCOC(=O)C1=C(C(C)C)NC(C(C)C)=C(C(=O)OCC)C1c1ccc(Br)s1` [PT-183, diethyl 4-(5-bromothiophen-2-yl)-2,6-diisopropyl-1,4-dihydropyridine-3,5-dicarboxylate], for which, in data set [1], the “CaL Plate Assay % blk (1 μM test cmpd)” value is recorded as 0% and the “CaL Plate Assay % blk (10 μM test cmpd)” value worked out at 16%. In data set [2], the “hERG Patch Clamp hERG % blk (1 μM test cmpd)” value came to 10% and the “hERG Patch Clamp hERG % blk (10 μM test cmpd)” value came to 10%.
